row,Compound,melting point
1,CC(C)NC(=O)COc1ccc(-c2c(C#N)c3ccc(OC4CCOCC4)cc3n2C2CCC2)cc1 [Compound 3109],152 to 153 °C
2,C=CCNC(=O)Oc1ccc(-c2c(C#N)c3ccc(OC4CCOCC4)cc3n2C2CCC2)cc1 [Compound 3110],167 to 168 °C
3,CN(C)c1ccc(NC(=O)Oc2ccc(-c3c(C#N)c4ccc(OC5CCOCC5)cc4n3C3CCC3)cc2)cc1 [Compound 3111],165 to 166 °C
4,CN(C(=O)Oc1ccc(-c2c(C#N)c3ccc(OC4CCOCC4)cc3n2C2CCC2)cc1)c1ccccc1 [Compound 3112],167 to 169 °C
5,CN1CCN(C(=O)c2ccc3c(C#N)c(-c4ccc(NS(=O)(=O)C5CC5)cc4)n(C4CCC4)c3c2)CC1 [Compound 3114],124 to 127 °C
6,N#Cc1c(-c2ccc(NCCCc3ccccc3)cc2)n(C2CCC2)c2cc(OC3CCOCC3)ccc12 [Compound 3118],105 to 108 °C
7,CC(C)c1ccc(CNc2ccc(-c3c(C#N)c4ccc(OC5CCOCC5)cc4n3C3CCC3)cc2)cc1 [Compound 3119],157 to 159 °C
8,N#Cc1c(-c2ccc(NCc3ccccc3F)cc2)n(C2CCC2)c2cc(OC3CCOCC3)ccc12 [Compound 3120],180 to 181 °C
9,Cc1ccccc1CNc1ccc(-c2c(C#N)c3ccc(OC4CCOCC4)cc3n2C2CCC2)cc1 [Compound 3121],168 to 172 °C
10,Cc1cc(C)cc(CNc2ccc(-c3c(C#N)c4ccc(OC5CCOCC5)cc4n3C3CCC3)cc2)c1 [Compound 3122],104 to 107 °C
11,N#Cc1c(-c2ccc(NCC3CCCCC3)cc2)n(C2CCC2)c2cc(OC3CCOCC3)ccc12 [Compound 3123],175 to 177 °C
12,N#Cc1c(-c2ccc(Nc3cccc(OC(F)(F)F)c3)cc2)n(C2CCC2)c2cc(OC3CCOCC3)ccc12 [Compound 3129],108 to 110 °C
13,COCCOc1ccc2c(C#N)c(-c3ccc(C(=O)N[C@@H](C)c4ccccc4)cc3)n(C3CCC3)c2c1 [Compound 3131],149 to 152 °C
14,COCCOc1ccc2c(C#N)c(-c3ccc(C(=O)N[C@H](C)c4ccc(F)cc4)cc3)n(C3CCC3)c2c1 [Compound 3132],169 to 170 °C
15,COCCOc1ccc2c(C#N)c(-c3ccc(C(=O)N[C@H](C)c4ccc(OC)cc4)cc3)n(C3CCC3)c2c1 [Compound 3133],156 to 157 °C
16,COCCOc1ccc2c(C#N)c(-c3ccc(C(=O)NCc4ccc(F)cc4)cc3)n(C3CCC3)c2c1 [Compound 3134],154 to 160 °C
17,CCN(CC)C(=O)c1ccc2c(c1)c(C#N)c(-c1ccc(NC(=O)NC(C)C)cc1)n2C1CCC1 [Compound 3136],250 °C (dec.)
18,CCN(CC)C(=O)c1ccc2c(c1)c(C#N)c(-c1ccc(NC(=O)OC(C)C)cc1)n2C1CCC1 [Compound 3145],225 to 226 °C
19,CC(C)OC(=O)Nc1ccc(-c2c(C#N)c3cc(C(=O)N(C)C)ccc3n2C2CCC2)cc1 [Compound 3146],136 to 138 °C
20,CC(C)OC(=O)Nc1ccc(-c2c(C#N)c3cc(C(=O)N4CCCC4)ccc3n2C2CCC2)cc1 [Compound 3148],204 to 205 °C
21,N#Cc1c(-c2ccc(NC3=NC(O)(C(F)(F)F)CS3)cc2)n(C2CCC2)c2cc(OC3CCOCC3)ccc12 (centres unmarked) [Compound 3150],136 to 138 °C

row,Compound,melting point
1,N#Cc1c(-c2ccc(Nc3ccc(F)c(C(F)(F)F)c3)cc2)n(C2CCC2)c2cc(OC3CCOCC3)ccc12 [Compound 3156],168 to 169 °C
2,N#Cc1c(-c2ccc(NC(=S)NC3CCCC3)cc2)n(C2CCC2)c2cc(OC3CCOCC3)ccc12 [Compound 3157],137 to 138 °C
3,CC(C)NC(=S)Nc1ccc(-c2c(C#N)c3ccc(OC4CCOCC4)cc3n2C2CCC2)cc1 [Compound 3158],129 to 130 °C
4,N#Cc1c(-c2ccc(Oc3cnccn3)cc2)n(C2CCC2)c2cc(OC3CCOCC3)ccc12 [Compound 3168],167 to 170 °C
5,CCNC(=O)Oc1ccc2c(C#N)c(-c3ccc(NC(=O)O[C@H](C)C4CC4)cc3)n(C3CCC3)c2c1 [Compound 3170],192 to 194 °C
6,C[C@@H](OC(=O)Nc1ccc(-c2c(C#N)c3ccc(OC(=O)NC4CCCCC4)cc3n2C2CCC2)cc1)C1CC1 [Compound 3172],213 to 216 °C
7,C[C@@H](OC(=O)Nc1ccc(-c2c(C#N)c3ccc(OC(=O)NCCc4ccccc4)cc3n2C2CCC2)cc1)C1CC1 [Compound 3173],203 to 206 °C
8,CC(C)NC(=O)Oc1ccc2c(C#N)c(-c3ccc(NC(=O)O[C@H](C)C4CC4)cc3)n(C3CCC3)c2c1 [Compound 3174],202 to 205 °C
9,CC(C)(C)OC(=O)NS(=O)(=O)Nc1ccc(-c2c(C#N)c3ccc(N4CCOCC4)cc3n2C2CC2)cc1 [Compound 3175],171 to 175 °C
10,N#C/N=C(/Nc1ccc(-c2c(C#N)c3ccc(OC4CCOCC4)cc3n2C2CCC2)cc1)NC1CCCCC1 [Compound 3176],209 to 211 °C
11,CC(C)n1c(-c2ccc(NS(=O)(=O)Cc3ccc(C(F)(F)F)cc3)cc2)c(C#N)c2ccc(OC(F)F)cc21 [Compound 3178],224 to 225 °C
12,CCS(=O)(=O)Nc1ccc(-c2c(C#N)c3ccc(OC4CCS(=O)(=O)CC4)cc3n2C2CCC2)cc1 [Compound 3184],259 to 264 °C
13,N#Cc1c(-c2ccc(NS(=O)(=O)C3CC3)cc2)n(C2CCC2)c2cc(OC3CCS(=O)(=O)CC3)ccc12 [Compound 3185],279 to 285 °C
14,C[C@@H](OC(=O)Nc1ccc(-c2c(C#N)c3ccc(OC4CCS(=O)(=O)CC4)cc3n2C2CCC2)cc1)C1CC1 [Compound 3186],226 to 231 °C
15,C[C@@H](OC(=O)Nc1ccc(-c2c(C#N)c3ccc(OC4CCS(=O)(=O)CC4)cc3n2C2CCC2)cc1)C(F)(F)F [Compound 3187],243 to 249 °C
16,N#Cc1c(-c2ccc(N(CCF)c3nc(C(F)(F)F)cs3)cc2)n(C2CCC2)c2cc(OCCF)ccc12 [Compound 3188],137 to 138 °C
17,CCn1c(-c2ccc(N3CCCS3(=O)=O)cc2)c(C#N)c2ccc(Oc3nccnc3C#N)cc21 [Compound 3196],232 to 236 °C
18,CCCS(=O)(=O)Nc1ccc(-c2c(C#N)c3ccc(N4CCCC4=O)cc3n2C2CCC2)cc1 [Compound 3198],279 to 282 °C
19,C[C@@H](OC(=O)Nc1ccc(-c2c(C#N)c3ccc(OC4CCS(=O)(=O)CC4)cc3n2C2CC2)cc1)C1CC1 [Compound 3199],205 to 210 °C
20,CCCS(=O)(=O)Nc1ccc(-c2c(C#N)c3ccc(-c4cnccc4OC)cc3n2C2CCC2)cc1 [Compound 3202],240 to 242 °C
21,CCCS(=O)(=O)Nc1ccc(-c2c(C#N)c3ccc(-c4ccnn4C)cc3n2C2CCC2)cc1 [Compound 3203],241 to 242 °C

# Results, then the compound that gave them:
row,melting point,Compound
1,185 to 188 °C,CC(C)c1ccc(Nc2ccc(-c3c(C#N)c4ccc(OC5CCOCC5)cc4n3C3CCC3)cc2)cc1 [Compound 3127]
2,207 to 210 °C,COc1ccc(Nc2ccc(-c3c(C#N)c4ccc(OC5CCOCC5)cc4n3C3CCC3)cc2)cc1 [Compound 3128]
3,246 to 248 °C,CC(C)(C)c1csc(Nc2ccc(-c3c(C#N)c4ccc(OC5CCOCC5)cc4n3C3CCC3)cc2)n1 [Compound 3151]
4,215 to 217 °C,Cc1csc(Nc2ccc(-c3c(C#N)c4ccc(OC5CCOCC5)cc4n3C3CCC3)cc2)n1 [Compound 3152]
5,269 to 271 °C,N#Cc1c(-c2ccc(Nc3nc(-c4ccc(F)cc4)cs3)cc2)n(C2CCC2)c2cc(OC3CCOCC3)ccc12 [Compound 3153]
6,195 to 201 °C,COc1ccc(Nc2ccc(-c3c(C#N)c4ccc(OC5CCOCC5)cc4n3C3CCC3)cc2)cc1C [Compound 3159]
7,125 to 128 °C,N#Cc1c(-c2ccc(Nc3ccccc3Cl)cc2)n(C2CCC2)c2cc(OC3CCOCC3)ccc12 [Compound 3160]
8,174 to 179 °C,Cc1cc(Cl)ccc1Nc1ccc(-c2c(C#N)c3ccc(OC4CCOCC4)cc3n2C2CCC2)cc1 [Compound 3161]
9,148 to 152 °C,CC(=O)c1cccc(Nc2ccc(-c3c(C#N)c4ccc(OC5CCOCC5)cc4n3C3CCC3)cc2)c1 [Compound 3162]
10,211 to 212 °C,N#Cc1c(-c2ccc(Nc3ccccn3)cc2)n(C2CCC2)c2cc(OC3CCOCC3)ccc12 [Compound 3163]
11,210 to 212 °C,N#Cc1c(-c2ccc(Nc3cccnc3)cc2)n(C2CCC2)c2cc(OC3CCOCC3)ccc12 [Compound 3165]
12,209 to 213 °C,N#Cc1c(-c2ccc(Nc3ncccn3)cc2)n(C2CCC2)c2cc(OC3CCOCC3)ccc12 [Compound 3166]
13,168 to 169 °C,N#Cc1c(-c2ccc(Oc3ncccn3)cc2)n(C2CCC2)c2cc(OC3CCOCC3)ccc12 [Compound 3167]
14,147 to 149 °C,N#Cc1c(-c2ccc(Oc3ccccn3)cc2)n(C2CCC2)c2cc(OC3CCOCC3)ccc12 [Compound 3169]
15,250 to 252 °C,N#Cc1c(-c2ccc(Nc3nc(C(F)(F)F)cs3)cc2)n(C2CCC2)c2cc(OC3CCOCC3)ccc12 [Compound 3177]
16,240 to 241 °C,CC(C)(C)c1csc(Nc2ccc(-c3c(C#N)c4ccc(Oc5ncccn5)cc4n3C3CCC3)cc2)n1 [Compound 3179]
17,218 to 220 °C,CCCS(=O)(=O)Nc1ccc(-c2c(C#N)c3ccc(Oc4nccnc4C#N)cc3n2C2CCC2)cc1 [Compound 3181]
18,241 to 245 °C,N#Cc1c(-c2ccc(Nc3nc(C(F)(F)F)cs3)cc2)n(C2CCC2)c2cc(Oc3ncccn3)ccc12 [Compound 3189]
19,227 to 229 °C,C[C@@H](OC(=O)Nc1ccc(-c2c(C#N)c3ccc(Oc4nccnc4C#N)cc3n2C2CCC2)cc1)C1CC1 [Compound 3191]
20,181 to 184 °C,CCCS(=O)(=O)Nc1ccc(-c2c(C#N)c3ccc(Oc4ncccc4C(F)(F)F)cc3n2C2CCC2)cc1 [Compound 3201]
21,199 to 201 °C,Cc1csc(Nc2ccc(-c3c(C#N)c4ccc(OCCF)cc4n3C3CCC3)cc2)n1 [Compound 3205]
22,234 to 236 °C,N#Cc1c(-c2ccc(Nc3nc(-c4ccc(F)cc4)cs3)cc2)n(C2CCC2)c2cc(OCCF)ccc12 [Compound 3206]
23,116 to 118 °C,N#Cc1c(-c2ccc(Nc3nc(C(F)(F)F)cs3)cc2)n(C2CCC2)c2cc(OCCF)ccc12 [Compound 3207]
